Our source for the IC50 values is patent publication US10759783B2, “Biaryl inhibitors of Bruton'S tyrosine kinase” (BIOGEN MA INC., priority 2013, dated 2020).

The target of test [1] is T1, BTK enzyme (Homo sapiens, UniProt Q06187).
T1 construct: purchased Upstate 14-552
As to the kind of experiment: In vitro BTK kinase assay: BTK-POLYGAT-LS assay. The test is classed as biochemical. As to conditions: ATP 10 μM, read-out: IC50 (10uMATP). In a few lines: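 Human BTK activity was measured with final 10 μM ATP and 100 nM polyGAT substrate in pH 7.5 Tris buffer with 10 mM MgCl2, DTT, Triton X-100 and casein.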

The target of test [2] is BTK (phospho-BTK) in human whole blood (Homo sapiens, UniProt Q06187). Put plainly: In vitro PD assay in human whole blood (pBTK assay).
BTK (phospho-BTK) in human whole blood, sequence (Q06187 whole entry): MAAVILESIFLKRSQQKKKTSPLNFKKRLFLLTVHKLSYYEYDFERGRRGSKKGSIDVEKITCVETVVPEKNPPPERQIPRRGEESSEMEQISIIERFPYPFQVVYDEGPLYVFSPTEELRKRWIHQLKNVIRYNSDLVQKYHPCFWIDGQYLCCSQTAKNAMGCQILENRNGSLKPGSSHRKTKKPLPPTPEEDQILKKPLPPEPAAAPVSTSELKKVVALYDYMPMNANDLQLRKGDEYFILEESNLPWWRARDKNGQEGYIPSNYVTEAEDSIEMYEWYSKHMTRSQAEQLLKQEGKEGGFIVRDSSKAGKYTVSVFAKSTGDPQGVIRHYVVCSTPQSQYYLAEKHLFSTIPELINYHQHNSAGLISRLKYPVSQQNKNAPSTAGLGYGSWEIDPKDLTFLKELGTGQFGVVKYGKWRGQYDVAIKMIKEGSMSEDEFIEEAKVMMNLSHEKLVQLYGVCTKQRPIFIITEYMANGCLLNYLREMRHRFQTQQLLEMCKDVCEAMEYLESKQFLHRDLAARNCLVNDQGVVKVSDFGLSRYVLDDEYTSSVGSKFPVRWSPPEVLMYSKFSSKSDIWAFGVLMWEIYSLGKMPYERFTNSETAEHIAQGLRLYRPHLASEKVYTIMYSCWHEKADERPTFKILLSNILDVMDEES

T1 sequence (Q06187 whole entry): as above

For `COCCn1cc(Nc2nccc(-c3ccc(CNC(=O)N4CC(OC(C)(C)C)C4)c(C(F)(F)F)c3)n2)cn1` [Example I-204, 3-(tert-butoxy)-N-(4-(2-((1-(2-methoxyethyl)-1H-pyrazol-4-yl)amino)pyrimidin-4-yl)-2-(trifluoromethyl)benzyl)azetidine-1-carboxamide], the IC50 (in general, the point on the concentration scale where inhibition reaches its midpoint) in test [1] is below 10 nM; in test [2], below 500 nM.

In the case of `CC(C)n1cc(Nc2nccc(-c3ccc(CNC(=O)N4CCC(C(C)(C)C)C4)c(C(F)(F)F)c3)n2)cn1` (stereo not drawn) [Example I-293, 3-tert-butyl-N-[[4-[2-[(1-isopropylpyrazol-4-yl)amino]pyrimidin-4-yl]-2-(trifluoromethyl)phenyl]methyl]pyrrolidine-1-carboxamide], the IC50 in test [1] was below 10 nM; in test [2], below 500 nM.

As for `Cc1cc(-c2cc(Nc3cc4c(cn3)CNCC4)ncn2)ccc1CNC(=O)c1cnc(C(C)(C)C)s1` [Example I-267, 2-tert-butyl-N-[[2-methyl-4-[6-(5,6,7,8-tetrahydro-2,7-naphthyridin-3-ylamino)pyrimidin-4-yl]phenyl]methyl]thiazole-5-carboxamide], the IC50 in test [1] was below 10 nM; in test [2] it was below 500 nM.

For the compound `Cc1cc(-c2cc(Nc3cc4n(n3)CCN(C)C4C)ncn2)ccc1CNC(=O)c1cnn(C(C)(C)C)c1` (stereo not drawn) [Example I-282, 1-tert-butyl-N-[[4-[6-[(4,5-dimethyl-6,7-dihydro-4H-pyrazolo[1,5-a]pyrazin-2-yl)amino]pyrimidin-4-yl]-2-methyl-phenyl]methyl]pyrazole-4-carboxamide], the IC50 in test [1] is below 10 nM; in test [2], below 500 nM.

For the compound `Cc1cc(-c2cc(Nc3cc4n(n3)CCOC4)ncn2)ccc1CNC(=O)N1CC(OC(C)C)C1` [Example I-277, N-[[4-[6-(6,7-dihydro-4H-pyrazolo[5,1-c][1,4]oxazin-2-ylamino)pyrimidin-4-yl]-2-methyl-phenyl]methyl]-3-isopropoxy-azetidine-1-carboxamide], the IC50 is below 10 nM in test [1] and below 500 nM in test [2].

Regarding `Cc1cc(-c2ccnc(Nc3cnn(C)c3)n2)ccc1CNC(=O)c1cc2c(s1)CCCC2` [Example I-5, N-(2-methyl-4-(2-((1-methyl-1H-pyrazol-4-yl)amino)pyrimidin-4-yl)benzyl)-4,5,6,7-tetrahydrobenzo[b]thiophene-2-carboxamide], the IC50 was below 10 nM in test [1] and 500 to 1500 nM in test [2].

Turning to `CC(C)n1cc(Nc2nccc(-c3ccc(CNC(=O)N4CC(OC(C)(C)C)C4)c(C(F)(F)F)c3)n2)cn1` [Example I-199, 3-(tert-butoxy)-N-(4-(2-((1-isopropyl-1H-pyrazol-4-yl)amino)pyrimidin-4-yl)-2-(trifluoromethyl)benzyl)azetidine-1-carboxamide], the IC50 in test [1] is below 10 nM; in test [2], below 500 nM.

Take `Cc1cc(-c2ccnc(Nc3cnn(C4CCN(C)CC4)c3)n2)ccc1CNC(=O)c1cnc(C(C)(C)C)s1` [Example I-46, 2-(tert-butyl)-N-(2-methyl-4-(2-((1-(1-methylpiperidin-4-yl)-1H-pyrazol-4-yl)amino)pyrimidin-4-yl)benzyl)thiazole-5-carboxamide]: the IC50 in test [1] is below 10 nM; in test [2], below 500 nM.

In the case of `CC(C)C1CCN(C(=O)NC2CCCCc3cc(-c4ccnc(Nc5cnn([C@@H]6CCOC6)c5)n4)ccc32)C1` (stereo partly drawn) [Example I-344, 3-isopropyl-N-[2-[2-[[1-[(3R)-tetrahydrofuran-3-yl]pyrazol-4-yl]amino]pyrimidin-4-yl]-6,7,8,9-tetrahydro-5H-benzo[7]annulen-5-yl]pyrrolidine-1-carboxamide], the IC50 in test [1] was below 10 nM; in test [2], below 500 nM.

On to `Cc1cc(-c2ccnc(Nc3cnn(C[C@@H]4CNCCO4)c3)n2)ccc1CNC(=O)c1cnc(C(C)(C)C)s1` [Example I-126, (S)-2-(tert-butyl)-N-(2-methyl-4-(2-((1-(morpholin-2-ylmethyl)-1H-pyrazol-4-yl)amino)pyrimidin-4-yl)benzyl)thiazole-5-carboxamide], for which the IC50 was below 10 nM in test [1] and below 500 nM in test [2].

Take `Cc1cc(-c2ccnc(Nc3cnn(C)c3)n2)ccc1CNC(=O)N1CC(OCCF)C1` [Example I-307, 3-(2-fluoroethoxy)-N-[[2-methyl-4-[2-[(1-methylpyrazol-4-yl)amino]pyrimidin-4-yl]phenyl]methyl]azetidine-1-carboxamide]: the IC50 in test [1] is below 10 nM; in test [2], below 500 nM.

In the case of `Cn1cc(Nc2nccc(-c3ccc(CNC(=O)N4CC(OC(C)(C)C)C4)c(CCO)c3)n2)cn1` [Example I-190, 3-(tert-butoxy)-N-(2-(2-hydroxyethyl)-4-(2-((1-methyl-1H-pyrazol-4-yl)amino)pyrimidin-4-yl)benzyl)azetidine-1-carboxamide], the IC50 was below 10 nM in test [1] and below 500 nM in test [2].

For the compound `CCOC1CN(C(=O)NC2CCCCc3cc(-c4ccnc(Nc5cnn(C)c5)n4)ccc32)C1` (stereo not drawn) [Example I-331, 3-ethoxy-N-[2-[2-[(1-methylpyrazol-4-yl)amino]pyrimidin-4-yl]-6,7,8,9-tetrahydro-5H-benzo[7]annulen-5-yl]azetidine-1-carboxamide], the IC50 in test [1] is below 10 nM; in test [2], below 500 nM.

With `Cn1cc(Nc2nccc(-c3ccc(CNC(=O)N4CC(OC(C)(C)C)C4)c(C(F)(F)F)c3)n2)cn1` [Example I-198, 3-(tert-butoxy)-N-(4-(2-((1-methyl-1H-pyrazol-4-yl)amino)pyrimidin-4-yl)-2-(trifluoromethyl)benzyl)azetidine-1-carboxamide], the 50% inhibitory concentration (IC50) in test [1] is below 10 nM; in test [2], below 500 nM.

`Cc1cc(-c2ccnc(Nc3cnn(C)c3)n2)ccc1CNC(=O)c1cc2c(s1)CCNC2` [Example I-2, N-(2-methyl-4-(2-((1-methyl-1H-pyrazol-4-yl)amino)pyrimidin-4-yl)benzyl)-4,5,6,7-tetrahydrothieno[3,2-c]pyridine-2-carboxamide]: the IC50 in test [1] was below 10 nM; in test [2], 500 to 1500 nM.

For the compound `Cc1cc(-c2cc(Nc3cnn(C)n3)ncn2)ccc1CNC(=O)c1cnc(C(C)(C)C)s1` [Example I-67, 2-(tert-butyl)-N-(2-methyl-4-(6-((2-methyl-2H-1,2,3-triazol-4-yl)amino)pyrimidin-4-yl)benzyl)thiazole-5-carboxamide], the values for the IC50 in test [1] and in test [2] were below 10 nM and 500 to 1500 nM, respectively.

`Cc1cc(-c2cc(Nc3cc4n(n3)CCS(=O)(=O)C4)ncn2)ccc1CNC(=O)c1cnn(C(C)(C)C)c1` [Example I-242, 1-(tert-butyl)-N-(4-(6-((5,5-dioxido-6,7-dihydro-4H-pyrazolo[5,1-c][1,4]thiazin-2-yl)amino)pyrimidin-4-yl)-2-methylbenzyl)-1H-pyrazole-4-carboxamide]: the IC50 is below 10 nM in test [1] and below 500 nM in test [2].

`Cc1c(Nc2nccc(-c3ccc4c(c3)CCCCC4NC(=O)N3CC(OC(C)(C)C)C3)n2)cnn1C` (stereo not drawn) [Example I-347, 3-tert-butoxy-N-[2-[2-[(1,5-dimethylpyrazol-4-yl)amino]pyrimidin-4-yl]-6,7,8,9-tetrahydro-5H-benzo[7]annulen-5-yl]azetidine-1-carboxamide]: the IC50 in test [1] was below 10 nM; in test [2], below 500 nM.

On to `Cc1cc(-c2ccnc(Nc3cnn([C@H]4CC[C@@H](C(=O)O)CC4)c3)n2)ccc1CNC(=O)c1cnc(C(C)(C)C)s1` [Example I-48, cis-4-(4-((4-(4-((2-(tert-butyl)thiazole-5-carboxamido)methyl)-3-methylphenyl)pyrimidin-2-yl)amino)-1H-pyrazol-1-yl)cyclohexanecarboxylic acid], for which the IC50 in test [1] was below 10 nM; in test [2], below 500 nM.

As to `CC(C)OC1CN(C(=O)NCc2ccc(-c3ccnc(Nc4cnn([C@@H]5CCOC5)c4)n3)cc2C(F)(F)F)C1` [Example I-314, 3-isopropoxy-N-[[4-[2-[[1-[(3R)-tetrahydrofuran-3-yl]pyrazol-4-yl]amino]pyrimidin-4-yl]-2-(trifluoromethyl)phenyl]methyl]azetidine-1-carboxamide], the IC50 was below 10 nM in test [1] and below 500 nM in test [2].

Regarding `CC(C)(C)OC1CN(C(=O)NCc2ccc(-c3ccnc(Nc4cnn(CCO)c4)n3)cc2C(F)(F)F)C1` [Example I-205, 3-(tert-butoxy)-N-(4-(2-((1-(2-hydroxyethyl)-1H-pyrazol-4-yl)amino)pyrimidin-4-yl)-2-(trifluoromethyl)benzyl)azetidine-1-carboxamide], the results for the IC50 in test [1] and in test [2] were below 10 nM and below 500 nM, respectively.

Consider `CCN1CCn2nc(Nc3cc(-c4ccc(CNC(=O)c5cnn(C(C)(C)C)c5)c(C)c4)ncn3)cc2C1` [Example I-232, 1-(tert-butyl)-N-(4-(6-((5-ethyl-4,5,6,7-tetrahydropyrazolo[1,5-a]pyrazin-2-yl)amino)pyrimidin-4-yl)-2-methylbenzyl)-1H-pyrazole-4-carboxamide], for which the IC50 is below 10 nM in test [1] and below 500 nM in test [2].

Regarding `CN1CC[C@@H](n2cc(Nc3nccc(-c4ccc(CNC(=O)N5CCC(C(C)(C)C)C5)c(C(F)(F)F)c4)n3)cn2)C1` (stereo partly drawn) [Example I-208, 3-(tert-butyl)-N-(4-(2-((1-((R)-1-methylpyrrolidin-3-yl)-1H-pyrazol-4-yl)amino)pyrimidin-4-yl)-2-(trifluoromethyl)benzyl)pyrrolidine-1-carboxamide], the IC50 in test [1] is below 10 nM; in test [2], below 500 nM.

As to `Cc1cc(-c2nc(Nc3cnn(C)c3)ncc2F)ccc1CNC(=O)c1cnc(C(C)(C)C)s1` [Example I-111, 2-(tert-butyl)-N-(4-(5-fluoro-2-((1-methyl-1H-pyrazol-4-yl)amino)pyrimidin-4-yl)-2-methylbenzyl)thiazole-5-carboxamide], the IC50 in test [1] is below 10 nM; in test [2], 1500 to 10000 nM.
